Reference: patent US11911375B2, “Solid oral nicotine formulation” (Fertin Pharma A/S, priority 2020, dated 2024)

Assays:
[1] = compared with CaCl2; release from NPR (16%)
Method: The temperature of the water was 25 degrees Celsius throughout the experiment and stirring of 100 rpm was applied throughout the experiment. pH was measured at experiment start and end.
(§1) A relative low nicotine concentration is used in order to reduce the impact of equilibrium on both the release rate and effective release of nicotine from the ion-exchange resin.
Samples were taken out at varying timepoints and analyzed for nicotine content using standard HPLC. The results are presented as percentage of nicotine released.

[2] = Example 15: release of nicotine from NPR (16%) with 1 equivalent of AlCl3 or MgO in water, 28 mg/L nicotine, 25 degrees Celsius, 150 rpm, HPLC; assay type: physicochemical; conditions: 1 equivalent of MgO; release from NPR (16%)
Method: The temperature of the water was 25 degrees Celsius throughout the experiment and stirring of 150 rpm was applied throughout the experiment. pH was measured at experiment start and end.
as §1
Samples were taken out at varying timepoints and analyzed for nicotine content using standard HPLC. The result is presented as percentage of nicotine released.

[3] = 25 degrees Celsius, atmospheric pressure and pH 7.0; cited from earlier work

SMILES | Effect of NaCl on the release of nicotine [1] | Effect of the presence of MgO on release of nicotine [2] | water-solubility [3]
[Cl-].[Na+] [NaCl] | much lower effect on the release of nicotine |  | 
[Mg+2].[O-2] [MgO] |  | does not increase the release of nicotine | below 5 grams per 100 mL of water
